This note sets out measurements from PubChem BioAssay AID1350 (Sanford-Burnham Center for Chemical Genomics, 2008).

Activity calls are given as the source filed them.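 How the source made its calls: active means wells where survival under tumor necrosis factor attack stays above 50% of untreated control at 25 µM; inactive means the rest.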

In the assay the test system is CSM14.1 TNF/CHX-induced death, ATPlite luminescence, 24 h. The assay can be described thus: protection against TNF-triggered CSM14.1 death, SAR follow-up, selectivity assay for ER stress death inhibitor project, cell-based, undifferentiated CSM14.1, ATP luminescence (AID 1350). The note with it: at 25 µM; hits give high values.

For `COc1ccc(C2CC(=O)C3=C(C2)Nc2ccccc2NC3c2cccc(C(F)(F)F)c2)cc1OC` (stereo unspecified), the survival was 37% (inactive).
Regarding `CC1(C)CC(=O)C2=C(C1)Nc1ccccc1NC2c1ccc(-c2ccccc2)cc1` (stereo unspecified), the survival was 46% (inactive).
As for `CCOc1cccc(C2Nc3ccccc3NC3=C2C(=O)CC(c2ccc(OC)cc2)C3)c1` (stereo unspecified), the survival was 40% (inactive).
The result for `O=C1CC(c2ccccc2)CC2=C1C(c1c(F)cccc1Cl)Nc1ccccc1N2` (stereo unspecified) reads 32% (inactive); that for `CCOc1cc(C2Nc3ccccc3NC3=C2C(=O)CC(c2ccc(OC)cc2)C3)cc(Cl)c1O` (stereo unspecified), 33% (inactive).
For the compound `COc1ccc(C2CC(=O)C3=C(C2)Nc2ccccc2NC3c2cc(C)ccc2C)cc1` (stereo unspecified), the survival is 39% (inactive).
The result for `CSc1ccc(C2Nc3ccccc3NC3=C2C(=O)CC(c2ccccc2)C3)cc1` (stereo unspecified) reads 43% (inactive); that for `CCCOc1ccc(C2Nc3ccccc3NC3=C2C(=O)CC(c2ccc(OC)c(OC)c2)C3)cc1` (stereo unspecified), 45% (inactive); that for `COc1ccc(C2CC(=O)C3=C(C2)Nc2ccccc2NC3c2ccccc2C(F)(F)F)cc1OC` (stereo unspecified), 37% (inactive).
`COc1ccc(C2CC(=O)C3=C(C2)Nc2ccccc2NC3c2cccc(Oc3ccccc3)c2)cc1OC` (stereo unspecified): the survival is 39% (inactive).
Turning to `COc1ccc(C2CC(=O)C3=C(C2)Nc2ccccc2NC3c2cccc(Br)c2)cc1OC` (stereo unspecified), the survival was 38% (inactive).
